From patent publication US20230074252A1, “DOSAGES AND METHODS FOR TREATING PULMONARY ARTERIAL HYPERTENSION WITH RODATRISTAT” (Altavant Sciences GmbH, priority 2020, published 2023)

Tests used:
[1] = Predicted plasma Cmax for 600 mg rodatristat ethyl BID (ELEVATE1/ELEVATE2); design: species or system human; settings: for Unbound Cmax: 600 mg BID, conservative 1% free fraction; for Predicted mean maximum plasma concentration (Cmax) / Cmax: 600 mg rodatristat ethyl BID, plasma; for Cmax: read-out: Predicted mean maximum plasma concentration (Cmax)
Protocol: The potential for rodatristat ethyl or rodatristat to be perpetrators of drug-drug interactions was assessed across in vitro CYP and transporter studies (Tables 1-4). […] This analysis was performed to assess the potential for clinically meaningful DDIs as recommended in FDA Draft Guidance: “In Vitro Metabolism- and Transporter-Mediated Drug-Drug Interaction Studies Guidance for Industry”; October 2017 (FDA, 2017).
R1 and R3 values using free (non-protein bound) drug levels were calculated based on plasma protein binding (fraction bound, fb) of rodatristat ethyl (0.995) and rodatristat (0.991). The FDA Guidance is set forth In Vitro Metabolism- and Transporter-Mediated Drug-Drug Interaction Studies Guidance for Industry (2017). […] Parameters for the prediction are set forth below in Tables 5 and 6.

CYP1A2 [2] = biological target: T1, CYP1A2 (Homo sapiens, UniProt P05177); assay: In vitro CYP substrate assessment (victim potential); format: in vitro ADME
T1 sequence (P05177 1-516): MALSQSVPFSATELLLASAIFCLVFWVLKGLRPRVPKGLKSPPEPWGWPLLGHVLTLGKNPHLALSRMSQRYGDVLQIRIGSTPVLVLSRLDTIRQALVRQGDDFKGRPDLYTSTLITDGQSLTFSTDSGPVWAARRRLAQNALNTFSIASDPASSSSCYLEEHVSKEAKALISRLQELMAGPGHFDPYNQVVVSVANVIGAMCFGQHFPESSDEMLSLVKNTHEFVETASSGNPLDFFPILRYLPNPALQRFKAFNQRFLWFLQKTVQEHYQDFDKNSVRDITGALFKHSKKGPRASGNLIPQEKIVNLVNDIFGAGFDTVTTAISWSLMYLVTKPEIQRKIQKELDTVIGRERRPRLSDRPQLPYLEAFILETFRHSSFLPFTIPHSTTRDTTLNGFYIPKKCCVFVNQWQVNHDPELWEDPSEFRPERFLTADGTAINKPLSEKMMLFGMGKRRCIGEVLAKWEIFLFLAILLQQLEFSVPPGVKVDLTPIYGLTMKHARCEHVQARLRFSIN

CYP2C9 = CYP2C9 (Homo sapiens, UniProt P11712); assay: as above; format: in vitro ADME
Chain of CYP2C9 (P11712 whole entry): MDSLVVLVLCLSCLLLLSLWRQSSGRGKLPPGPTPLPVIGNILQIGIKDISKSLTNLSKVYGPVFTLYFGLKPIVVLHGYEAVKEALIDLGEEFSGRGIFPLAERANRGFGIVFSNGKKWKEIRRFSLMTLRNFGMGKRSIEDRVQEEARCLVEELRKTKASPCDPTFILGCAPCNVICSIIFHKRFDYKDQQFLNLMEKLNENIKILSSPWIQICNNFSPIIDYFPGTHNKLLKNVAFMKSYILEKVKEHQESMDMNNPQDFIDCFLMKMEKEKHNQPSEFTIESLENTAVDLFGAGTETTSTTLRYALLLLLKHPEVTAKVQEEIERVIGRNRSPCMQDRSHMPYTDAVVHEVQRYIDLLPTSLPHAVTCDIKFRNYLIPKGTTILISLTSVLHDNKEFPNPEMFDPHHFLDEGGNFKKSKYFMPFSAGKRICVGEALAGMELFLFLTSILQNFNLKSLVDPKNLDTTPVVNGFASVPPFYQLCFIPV

P-gp = biological target: T2, P-gp (Homo sapiens, UniProt P08183); assay: Transporter inhibition, Caco-2 cells, digoxin probe; format: in vitro ADME; settings: for Potential for interaction? (transporter inhibitor), P-gp: predicted @ 600 mg BID
T2 construct: endogenous in cells; host or cells: Caco-2
T2 sequence (P08183 whole entry): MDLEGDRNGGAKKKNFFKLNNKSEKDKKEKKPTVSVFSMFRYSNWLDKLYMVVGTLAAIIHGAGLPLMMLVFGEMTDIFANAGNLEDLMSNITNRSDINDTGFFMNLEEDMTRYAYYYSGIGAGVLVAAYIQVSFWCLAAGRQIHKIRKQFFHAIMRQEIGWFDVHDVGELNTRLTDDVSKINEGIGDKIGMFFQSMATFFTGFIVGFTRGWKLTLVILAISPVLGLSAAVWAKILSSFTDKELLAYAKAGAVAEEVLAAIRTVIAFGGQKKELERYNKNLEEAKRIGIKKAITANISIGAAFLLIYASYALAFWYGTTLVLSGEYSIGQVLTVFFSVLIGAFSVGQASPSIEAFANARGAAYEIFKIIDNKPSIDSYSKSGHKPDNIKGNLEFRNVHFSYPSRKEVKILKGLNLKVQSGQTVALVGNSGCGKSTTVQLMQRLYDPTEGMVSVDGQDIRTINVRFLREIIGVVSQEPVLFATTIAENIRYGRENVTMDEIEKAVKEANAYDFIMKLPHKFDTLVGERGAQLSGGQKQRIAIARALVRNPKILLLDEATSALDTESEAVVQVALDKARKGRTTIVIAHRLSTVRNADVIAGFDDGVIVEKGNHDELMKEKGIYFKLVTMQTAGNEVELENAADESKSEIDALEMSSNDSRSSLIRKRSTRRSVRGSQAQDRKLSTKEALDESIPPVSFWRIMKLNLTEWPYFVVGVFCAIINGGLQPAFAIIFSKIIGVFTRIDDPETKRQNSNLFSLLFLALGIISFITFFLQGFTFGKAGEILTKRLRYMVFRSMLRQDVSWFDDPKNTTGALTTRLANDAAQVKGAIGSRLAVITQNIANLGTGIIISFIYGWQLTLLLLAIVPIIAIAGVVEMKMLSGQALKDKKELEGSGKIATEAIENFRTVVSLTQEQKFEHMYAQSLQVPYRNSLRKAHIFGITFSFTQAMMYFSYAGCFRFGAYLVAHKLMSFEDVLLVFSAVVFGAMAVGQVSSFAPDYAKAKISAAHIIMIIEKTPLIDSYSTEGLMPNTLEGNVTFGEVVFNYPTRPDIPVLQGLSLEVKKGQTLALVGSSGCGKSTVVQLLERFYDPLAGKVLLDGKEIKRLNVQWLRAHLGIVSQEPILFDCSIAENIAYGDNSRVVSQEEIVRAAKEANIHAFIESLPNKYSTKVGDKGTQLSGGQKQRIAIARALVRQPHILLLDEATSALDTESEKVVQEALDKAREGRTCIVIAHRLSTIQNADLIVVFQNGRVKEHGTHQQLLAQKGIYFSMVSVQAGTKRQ
Protocol: The competitive inhibition of specific transporters was investigated for RVT-1201 and KAR5417 in transporter-expressing in vitro systems (XT158039). Inhibition of P-gp was evaluated using a Caco-2 cell line with digoxin as probe substrate. Inhibition of OATP1B1 and OATP1B3 was evaluated using a HEK293 cell line expressing these transporters with estradiol-17β-glucuronide as probe substrate. In addition, inhibition of other transporters was also investigated (BCRP, OAT1, OAT3, OCT2, MATE1, MATE2-K). The IC50 estimates for P-gp (RVT-1201) and OATP1B1/3 (RVT-1201 and KAR5417) supported further evaluation of inhibition DDI potential using the PBPK model. For each IC50 estimate, substrate concentration and Km were used to estimate RVT-1201 and KAR5417 Ki with Equation 1 (Cheng and Prusoff, 1973).

CYP1A2 [3] = assay: CYP mRNA induction, cultured human hepatocytes from 3 donors; format: in vitro ADME; settings: clinically relevant concentrations
Protocol: (§1) “mM^”=millimolar. CYP induction was evaluated using cultured human hepatocytes (from 3 donors) treated once daily for 3 days with RE/R concentrations to […].
(§2) CYP induction was evaluated in vitro using cultured human hepatocytes from 3 donors. Rodatristat ethyl and rodatristat caused negligible induction of CYP1A2 (<2% control for the most sensitive responder), CYP2B6 (mean±SD values relative to control of 16.2±20.0% and 15.0±17.9%, respectively), and CYP3A4 (7.1±6.41% and 10.3±11.9%, respectively) mRNA at 20 μM (the highest concentration studied). […] The highest values for induction of CYP2B6 by an individual donor at all concentrations tested were 60.1% and 57.4% at 10 μM for rodatristat ethyl and rodatristat, respectively, and for CYP3A4 were 13.3% and 23.0% at 20 μM, respectively.
(§3) The induction of specific CYP isoforms (CYP1A2, CYP2B6, CYP3A4) was investigated for RVT-1201 and KAR5417 in human hepatocytes (HH) (XT153040). […] CYP2B6 and CYP3A4 mRNA induction by RVT-1201 and KAR5417 (Emax and EC50) were used to estimate the PBPK model parameters Indmax and IndC50. Within the PBPK model, IndC50 is equal to EC50, the concentration of inducer that supports half maximal induction of the CYP isoform (estimated by a sigmoid three parameter fit to in vitro concentration-dependent mRNA induction data). Within the PBPK model, Indmax represents the maximum fold induction relative to incubation with vehicle only (vehicle=1). The reported Emax for RVT-1201 and KAR5417 was estimated by sigmoid three parameter fit to in vitro concentration-dependent mRNA induction data. Baseline activity was set equal to zero, rather than one, therefore reported Emax was increased by adding one to each value to estimate Indmax. CYP2B6 induction data was used in the PBPK model as reported. CYP3A4 induction data was scaled based on the maximum induction by rifampin (at 20 μM). Scaling of CYP3A4 induction using rifampin data from the same system leverages the extensive literature on rifampin induction in vitro and in vivo and allows adjustment of in vitro induction data based on the relative performance of rifampin in each in vitro incubation, and the empirical relationship between rifampin induction of CYP3A4 in vitro and in vivo.

CYP2B6 = assay: as above; format: in vitro ADME; settings: for Highest induction of CYP2B6 by an individual donor: 10 μM; for Induction of CYP2B6 mRNA, mean±SD relative to control: 20 μM; for Inducer classification, CYP2B6: clinically relevant concentrations; for In vitro induction parameter Emax, CYP2B6 / EC50: mRNA, human hepatocytes; for EC50: read-out: In vitro induction parameter EC50, CYP2B6; for Calculated R3 Value, CYP2B6: predicted @ 600 mg BID
Protocol: as §1, §2, §3

CYP3A4 = assay: as above; format: in vitro ADME; settings: for Highest induction of CYP3A4 by an individual donor / Induction of CYP3A4 mRNA, mean±SD relative to control: 20 μM; for Inducer classification, CYP3A4: clinically relevant concentrations; for In vitro induction parameter Emax, CYP3A4 / EC50: mRNA, human hepatocytes; for EC50: read-out: In vitro induction parameter EC50, CYP3A4; for Calculated R3 Value, CYP3A4: predicted @ 600 mg BID
Protocol: as §1, §2, §3

SMILES: CCOC(=O)[C@@H]1CC2(CCN(c3cc(O[C@H](c4ccc(Cl)cc4-c4ccccc4)C(F)(F)F)nc(N)n3)CC2)CN1 [Rodatristat ethyl, (S)-ethyl 8-(2-amino-6-((R)-1-(5-chloro-[1,1′-biphenyl]-2-yl)-2,2,2-trifluoroethoxy)pyrimidin-4-yl)-2,8-diazaspiro[4.5]decane-3-carboxylate]
- Unbound Cmax [1]: 2.5 nM
- Predicted mean maximum plasma concentration (Cmax) [1]: 149 ng/mL
- Cmax [1]: 252 nM
- In vitro substrate? CYP1A2 (CYP1A2 [2]): No
- In vitro substrate? CYP2C9 (CYP2C9): No
- IC50 (P-gp; Caco 2 cells, read-out: In vitro IC50, P-gp): 3.32 µM
- Potential for interaction? (transporter inhibitor), P-gp (P-gp): Yes
- Inducer classification, CYP1A2 (CYP1A2 [3]): not considered inducers
- Highest induction of CYP2B6 by an individual donor (CYP2B6): 60.1%
- Induction of CYP2B6 mRNA, mean±SD relative to control (CYP2B6): 16.2±20.0%
- Inducer classification, CYP2B6 (CYP2B6): potentially weak to moderate inducers
- In vitro induction parameter Emax, CYP2B6 (CYP2B6): 3.1
- EC50 (CYP2B6): 6.16 µM
- Calculated R3 Value, CYP2B6 (CYP2B6): 0.960
- Highest induction of CYP3A4 by an individual donor (CYP3A4): 13.3%
- Induction of CYP3A4 mRNA, mean±SD relative to control (CYP3A4): 7.1±6.41%
- Inducer classification, CYP3A4 (CYP3A4): potential weak inducers
- In vitro induction parameter Emax, CYP3A4 (CYP3A4): 4.53
- EC50 (CYP3A4): 15.6 µM
- Calculated R3 Value, CYP3A4 (CYP3A4): 0.925
- Calculated R3 Value, CYP3A4 (CYP3A4; listed as rodatristat ethyl): 0.478

SMILES: Nc1nc(O[C@H](c2ccc(Cl)cc2-c2ccccc2)C(F)(F)F)cc(N2CCC3(CC2)CN[C@H](C(=O)O)C3)n1 [Rodatristat, (S)-8-(2-amino-6-((R)-1-(5-chloro-[1,1′-biphenyl]-2-yl)-2,2,2-trifluoroeth-oxy)pyrimidin-4-yl)-2,8-diazaspiro[4.5]decane-3-carboxylic acid]
- Unbound Cmax [1]: 20 nM
- Unbound Cmax ([1]; listed as rodatristat): 20.1 nM
- Predicted mean maximum plasma concentration (Cmax) [1]: 1130 ng/mL
- Cmax [1]: 2010 nM
- In vitro substrate? CYP1A2 (CYP1A2 [2]): No
- In vitro substrate? CYP2C9 (CYP2C9): No
- Inhibition of P-gp (in words) (P-gp): not an inhibitor
- Potential for interaction? (transporter inhibitor), P-gp (P-gp): No
- Inducer classification, CYP1A2 (CYP1A2 [3]): not considered inducers
- Highest induction of CYP2B6 by an individual donor (CYP2B6): 57.4%
- Induction of CYP2B6 mRNA, mean±SD relative to control (CYP2B6): 15.0±17.9%
- Inducer classification, CYP2B6 (CYP2B6): potentially weak to moderate inducers
- In vitro induction parameter Emax, CYP2B6 (CYP2B6): 2.95
- EC50 (CYP2B6): 5.6 µM
- Calculated R3 Value, CYP2B6 (CYP2B6): 0.766
- Highest induction of CYP3A4 by an individual donor (CYP3A4): 23.0%
- Induction of CYP3A4 mRNA, mean±SD relative to control (CYP3A4): 10.3±11.9%
- Inducer classification, CYP3A4 (CYP3A4): potential weak inducers
- In vitro induction parameter Emax, CYP3A4 (CYP3A4): 4.5
- EC50 (CYP3A4): 26.7 µM
- Calculated R3 Value, CYP3A4 (CYP3A4): 0.476
